In patent US20250002863A1, “METHOD OF GENERATING FUNCTIONAL ISLETS FROM PLURIPOTENT STEM CELLS” (HANGZHOU REPROGENIX BIOSCIENCE, INC., priority 2021, published 2025):

Tested on: pancreatic endocrine progenitors
Experiment: Addition of small molecules ISX9 and Wnt-C59 at Stage 5, flow cytometry of β cell marker expression in Stage 6 aggregates
Format: cell-based, human
Settings: added at Stage 5 of the hPSC differentiation protocol (10 μM ISX9, 100 nM Wnt-C59)
Excerpt: FIG. 5 illustrates establishment of efficient hPSC-islet generation protocol and characterization of hPSC-islets. a, Flow cytometry analysis comparing differentiation efficiencies between planar culture and suspension culture at various stages of the protocol in terms of pancreatic progenitor markers at the end of Stage 4 and β cell markers at the end of Stage 6 (n=5). b, Flow cytometry of β cell marker expression in Stage 6 aggregates without and with addition of small molecules ISX9 and Wnt-C59, individually or in combination at Stage 5, detected at S6D2 (n=4). c, Continuous stage-wise tracking of pancreatic progenitor, endocrine progenitor, and β cell markers by flow cytometry throughout the differentiation protocol (n=3). (d-h) In vitro characterization of stage 6 islet-like aggregates. d, Representative immunostaining of key β cell transcription factors in sectioned Stage 6 aggregates. Scale bar, 50 μm. e, C-peptide secretion of Stage 6 aggregates (n=3) and primary human islets in static glucose stimulation assay (n=2). Glucose stimulation index as indicated above bars. f, Insulin secretion of hPSC-islets in dynamic perifusion assay. g, Electron microscopy depicting ultrastructure of Stage 6 β cell and insulin granules. Scale bar, 2.5 μm. h, Glucagon secretion by hPSC-islets in static glucose stimulation assay. […]

O=C(NC1CC1)c1cc(-c2cccs2)on1 [ISX9, Isoxazole 9]
differentiation of pancreatic progenitors / terminal differentiation of pancreatic endocrine progenitors: promoted the terminal differentiation of pancreatic endocrine progenitors
